Each structure is given as a SMILES string.

This test has as its target T1, PARP (Homo sapiens, UniProt P09874).
T1 construct: endogenous in cells; host or cells: A549 human alveolar epithelial adenocarcinoma cells
The test is described as follows: PARP activity in hydrogen peroxide-stimulated A549 cells, whole-cell based assay (3H-NAD+ incorporation). The conditions noted are these: 15 min pretreatment (10 nM-300 nM), hydrogen peroxide-induced PARP activation, from dose-response curve. As to the method:
Human alveolar epithelial cells (A549), an adenocarcinoma cell line with the alveolar type 2 phenotype were cultured in […] medium supplemented with 10% fetal bovine serum. Cells were grown to 80% confluence in 12-well plates and pretreated with various concentrations (10 nM-300 nM) of an Indenoisoquinolinone Analog for 15 minutes. Hydrogen peroxide, a prototypical oxidant that induces DNA single strand breakage, was used to induce PARP activation. Hydrogen peroxide was diluted in culture media and added to the cells in a bolus of 20 μl. After 20 minutes of incubation, the medium was aspirated and 0.5 mL of assay buffer (56 mM HEPES pH 7.5, 28 mM KCl, 28 mM NaCl, 2 mM MgCl2, 0.01% w/v digitonin and 0.5 μCi/ml 3H-NAD^+) was added to cells. Following incubation in the assay buffer (15 minutes at 37° C.), PARP activity was measured. Cells were scraped from the plate, transferred to a 1.5 mL eppendorf tube and then added 200 μl of ice cold 50% w/v TCA. […] The contents of the tubes were added to 6.5 mL ScintiSafe Plus scintillation liquid (Fisher Scientific) and radioactivity was determined using a liquid scintillation counter (Wallac, Gaithersburg, Md.). […] EC50 values were determined from a dose-response curve. IC50 values were determined using a commercially available in vitro PARP-1 inhibition assay kit (Trevigen, Gaithersburg, Md., USA).

T1 sequence (P09874 whole entry): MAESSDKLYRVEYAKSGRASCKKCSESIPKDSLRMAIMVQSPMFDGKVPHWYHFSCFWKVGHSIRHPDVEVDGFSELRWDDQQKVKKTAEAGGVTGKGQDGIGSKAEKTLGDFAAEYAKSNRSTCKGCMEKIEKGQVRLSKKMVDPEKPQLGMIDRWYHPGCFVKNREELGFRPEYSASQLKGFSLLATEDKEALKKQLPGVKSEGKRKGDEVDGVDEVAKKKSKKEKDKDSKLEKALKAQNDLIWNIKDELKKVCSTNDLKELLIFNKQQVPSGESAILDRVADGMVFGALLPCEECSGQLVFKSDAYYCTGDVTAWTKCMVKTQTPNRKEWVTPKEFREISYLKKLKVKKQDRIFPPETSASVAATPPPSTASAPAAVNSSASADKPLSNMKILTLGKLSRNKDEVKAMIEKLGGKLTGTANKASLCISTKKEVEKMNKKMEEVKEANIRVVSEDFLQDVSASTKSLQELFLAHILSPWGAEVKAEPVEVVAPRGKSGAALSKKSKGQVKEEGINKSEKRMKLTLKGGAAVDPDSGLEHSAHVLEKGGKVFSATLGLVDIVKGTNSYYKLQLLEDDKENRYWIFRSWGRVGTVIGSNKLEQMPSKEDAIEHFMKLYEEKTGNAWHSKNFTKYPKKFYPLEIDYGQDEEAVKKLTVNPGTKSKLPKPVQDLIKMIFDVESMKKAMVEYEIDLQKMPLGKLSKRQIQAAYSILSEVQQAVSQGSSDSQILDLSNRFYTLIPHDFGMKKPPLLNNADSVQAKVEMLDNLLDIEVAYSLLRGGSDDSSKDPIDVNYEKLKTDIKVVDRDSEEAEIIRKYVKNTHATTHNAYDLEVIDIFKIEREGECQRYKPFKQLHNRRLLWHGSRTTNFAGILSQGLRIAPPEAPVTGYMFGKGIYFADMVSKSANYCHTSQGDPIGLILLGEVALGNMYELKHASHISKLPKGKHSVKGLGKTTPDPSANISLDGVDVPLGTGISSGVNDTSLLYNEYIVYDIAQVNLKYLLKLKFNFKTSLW

For the compound `O=c1[nH]c2c(c3ccccc13)Cc1c(CO)cccc1-2` [(I)(25), 10-hydroxymethyl-5,6-dihydro-5-oxo-11-H-indeno[1,2-c]isoquinoline], the EC50 is 0.29 µM.

What is called EC50 is the midpoint of the concentration-response curve.

The values above are taken from patent US7652028B2, “Indenoisoquinolinone analogs and methods of use thereof” (Inotek Pharmaceuticals Corporation, priority 2005, dated 2010).
